According to PMC12754617, “Ruthenium-enhanced curcumin derivatives target tumor growth and cancer-related inflammation in head and neck cancer models” (Frontiers in Oncology, 2025):

Key:
[1] = test system: CAL 27; experiment: Colony formation assay; assay type: cell-based, human; conditions: CAL 27, 24 h treatment at IC50
Description: (§1) Cells were seeded in six-well plates at a density of 100,000 cells per well (10,000 cells/200 μL) and grown for 24 h. […] Subsequently, cells were reseeded in new six-well plates at a density of 500 cells per well and grown for approximately 2 weeks. The cell culture medium was replaced every 2–3 days. When visible colonies appeared in the six-well plates, the culture was terminated, and the cells were washed twice with ice-cold PBS. The cells were then fixed with ice-cold methanol for 10 min and stained with 0.5% crystal violet solution for 30 min at room temperature. Experiments were performed in four independent replicates. The results were analyzed using the ImageJ plugin ColonyArea, which is optimized for standard analysis of colony formation assays. The plugin processes each well individually and determines not the number of colonies, but the area of the well covered by cells, also considering staining intensity.

[2] = test system: Detroit 562; experiment: Colony formation assay; assay type: cell-based, human; conditions: Detroit 562, 24 h treatment at IC50
Description: as §1

[3] = test system: FaDu; experiment: Colony formation assay; assay type: cell-based, human; conditions: 24 h treatment at IC50
Description: as §1

[4] = test system: HGF; experiment: Colony formation assay; assay type: cell-based, human; conditions: 24 h treatment at IC50
Description: as §1

[5] = test system: TR146; experiment: Colony formation assay; assay type: cell-based, human; conditions: TR146, 24 h treatment at IC50
Description: as §1

[6] = test system: HGF; experiment: Wound healing assay; assay type: cell-based, human; conditions: IC25 concentration, area closed
Description: (§2) The wound healing activity of complexes 3 and 4 was evaluated using the ibidi Culture-Insert 2 Well in a μ-dish. Cells were plated by applying 70 μL of cell suspension at a density of 50,000 cells into both wells of the Culture-Insert 2 Well and grown over the weekend. Once confluency was achieved, sterile tweezers were used to detach the Culture-Insert 2 Well from the μ-dish. The cell layer was then gently washed with PBS. Subsequently, the cell layer was treated with medium containing complex 3 or 4 at the IC25 concentration, and wound closure was observed and photographed using an inverted light microscope (0–55 h of incubation). Experiments were performed in four independent replicates.
(§3) An in vitro wound healing assay was performed to determine the effect of complex 3 or 4 on cell migration. The area of the wound bordered by a monolayer of cells was measured using ImageJ software. Wound closure was monitored from 0 to 55 h. […] Microscope images after 24 h for all cell lines, as well as 55 h, can be seen in Supplementary Figure S7. […] The stained wound healing area after 55 h is shown in Supplementary Figure S10.

[7] = test system: Hep-2; experiment: Wound healing assay; assay type: cell-based, human; conditions: IC25 concentration, area closed
Description: as §2, §3

[8] = test system: KB; experiment: Wound healing assay; assay type: cell-based, human; conditions: IC25 concentration, area closed
Description: as §2, §3

[9] = test system: TR146; experiment: Wound healing assay; assay type: cell-based, human; conditions: IC25 concentration, area closed
Description: as §2, §3

[10] = target: T1, NF-κB p65 (Homo sapiens, UniProt Q04206); experiment: Intracellular p65-NF-κB ELISA (DNA-binding activity); assay type: cell-based
T1 construct: endogenous in cells; host or cells: THP1-Blue NF-κB cells
T1 sequence (Q04206 whole entry): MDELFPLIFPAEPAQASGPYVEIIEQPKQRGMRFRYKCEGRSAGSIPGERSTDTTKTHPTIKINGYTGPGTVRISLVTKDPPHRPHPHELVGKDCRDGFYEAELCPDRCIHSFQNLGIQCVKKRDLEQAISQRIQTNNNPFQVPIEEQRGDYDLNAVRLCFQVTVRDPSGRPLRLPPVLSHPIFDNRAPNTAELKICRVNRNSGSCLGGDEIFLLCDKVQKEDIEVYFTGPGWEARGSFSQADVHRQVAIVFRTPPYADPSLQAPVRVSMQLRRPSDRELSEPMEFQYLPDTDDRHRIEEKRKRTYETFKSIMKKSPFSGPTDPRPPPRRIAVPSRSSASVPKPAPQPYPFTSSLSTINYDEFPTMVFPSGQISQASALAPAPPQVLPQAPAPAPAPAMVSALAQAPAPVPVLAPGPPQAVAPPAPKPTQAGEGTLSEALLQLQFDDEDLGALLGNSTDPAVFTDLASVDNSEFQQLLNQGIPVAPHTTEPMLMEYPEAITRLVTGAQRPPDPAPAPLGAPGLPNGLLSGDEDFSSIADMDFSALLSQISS
Description: To determine NF-κB p65 transcription factor levels by enzyme-linked immunosorbent assay (ELISA), an assay kit was used (Abcam, ab133112, Cambridge, UK). […] The supernatants were collected and used for the determination of intracellular p65-NF-κB by ELISA.
In this assay, a specific double-stranded DNA (dsDNA) sequence containing the NF-κB p65 response element is immobilized onto the wells of a 96-well plate. NF-κB p65 present in the sample binds specifically to these response elements. Bound p65 is subsequently detected using a primary antibody specific for NF-κB p65, followed by a horseradish peroxidase (HRP)-conjugated secondary antibody. The relevant background values were subtracted from the measured values. Absorbance was measured at 450 nm using an […] 200 PRO microplate reader (Tecan, Switzerland).

[11] = target: T2, IL-6 (Homo sapiens, UniProt P05231); experiment: Sandwich ELISA assay IL-6; assay type: binding; conditions: 15 μM, 500 pg/mL IL-6
T2 construct: purchased PeproTech, Thermo Fisher Scientific
T2 sequence (P05231 30-212): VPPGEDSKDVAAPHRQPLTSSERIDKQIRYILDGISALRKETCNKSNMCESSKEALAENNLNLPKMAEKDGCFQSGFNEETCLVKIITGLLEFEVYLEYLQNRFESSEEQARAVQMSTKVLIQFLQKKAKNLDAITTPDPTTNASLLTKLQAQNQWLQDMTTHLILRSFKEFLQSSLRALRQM
Description: Human ELISA kits for IL-6, IL-6R, and IL-8 (Sigma-Aldrich, Merck, Germany) were used to quantify cytokine levels after treatment with complex 3 or 4. Briefly, 96-well plates precoated with specific antibodies were used to capture IL-6, IL-6R, and IL-8 from samples. […] Each sample was supplemented with 500 pg/mL of IL-6/IL-6R/IL-8. Positive control wells contained only the IL-6/IL-6R/IL-8 standard (PeproTech, Thermo Fisher Scientific, Waltham, Massachusetts, USA). […] After incubation, wells were washed, and biotinylated antihuman antibodies were added, followed by washing and addition of HRP-conjugated streptavidin. Finally, the TMB substrate was added to develop a color proportional to the cytokine concentration, and the reaction was stopped with the stop solution. Absorbance was measured at 450 nm using an […] 200 PRO microplate reader (TECAN, Switzerland).

SMILES	Wound area (%) ([6]; 24 h)	Wound area (%) ([6]; 48 h)	Wound area (%) ([6]; 55 h)	Wound area (%) ([7]; Hep-2, 24 h)	Wound area (%) ([7]; Hep-2, 48 h)	Wound area (%) ([7]; Hep-2, 55 h)	Wound area (%) ([8]; 24 h)	Wound area (%) ([8]; 48 h)	Wound area (%) ([8]; 55 h)	Wound area (%) ([9]; TR146, 24 h)	Wound area (%) ([9]; TR146, 48 h)	Wound area (%) ([9]; TR146, 55 h)	further results
Cc1ccc(C(C)C)cc1.Cc1ccc(C(C)C)cc1.O=C1C(=Cc2ccnc3ccccc23)COCC1=Cc1ccnc2ccccc12.[Cl][Ru][Cl].[Cl][Ru][Cl] [Complex 3]	8 ± 3	13 ± 5	71 ± 2	3 ± 1	5 ± 1	less than 10%	7 ± 1	13 ± 1	less than 20%	3 ± 1	4 ± 1	less than 10%	Cloning efficiency (%) [1]: 39 ± 7%; Cloning efficiency (%) [2]: 57 ± 8%; Cloning efficiency (%) [3]: 73 ± 15%; Cloning efficiency (%) [4]: 95 ± 6%; Cloning efficiency (%) [5]: 66 ± 19%; Wound area (%) ([7]; Hep-2, 55 h, listed as C3): 7 ± 1%; Wound area (%) ([8]; 55 h, listed as C3): 17 ± 2%; Wound area (%) ([9]; TR146, 55 h, listed as C3): 5 ± 1%; Reduction of NF-κB (p65) levels ([10]; 1 μM, cellular extracts of THP1-Blue NF-κB cells, LPS): approximately 70%; NF-κB (p65) detected in cellular extracts ([10]; 8 μM): less than 5%
Cc1ccc(C(C)C)cc1.Cc1ccc(C(C)C)cc1.O=C1C(=Cc2cccnc2)CCC1=Cc1cccnc1.[Cl][Ru][Cl].[Cl][Ru][Cl] [Complex 4]	13 ± 3	47 ± 11	91 ± 1	9 ± 2	23 ± 3	less than 50%	16 ± 4	33 ± 4	less than 50%	3 ± 1	5 ± 1	less than 15%	Wound area (%) ([7]; Hep-2, 55 h, listed as C4): 47 ± 2%; Wound area (%) ([8]; 55 h, listed as C4): 44 ± 2%; Wound area (%) ([9]; TR146, 55 h, listed as C4): 7 ± 1%; Decrease of IL-6 concentration [11]: approximately 30%
